Test results reported in patent US20110189758A1, “TRANSFECTION VECTOR” (Anaeropharma Science, Inc., priority 2010, published 2011).
Where two headings read alike, the source gives them in different places.

System: Human breast cancer cell line KPL-1 tumor
Assay type: in vivo, nude mouse

COc1cccc2c1C(=O)c1c(O)c3c(c(O)c1C2=O)C[C@@](O)(C(=O)CO)C[C@@H]3O[C@H]1C[C@H](N)[C@H](O)[C@H](C)O1 [adriamycine, adriamycin]
Tumor volume, Average (Day 0 (grouping)): 97.7 mm3
Tumor volume, Average (Day 4): 133.6 mm3
Tumor volume, Average (Day 7): 145.4 mm3
Tumor volume, Average (Day 11): 257.9 mm3
Tumor volume, Average (Day 15): 415.2 mm3
Tumor volume, Average (Day 19): 625.2 mm3
Tumor volume, Average (Day 21): 852.6 mm3
T/C (%) at Day 21 (average tumor volume of group / Group I × 100): 63.8%
